Experimental findings from PubChem BioAssay AID2696 (Johns Hopkins Ion Channel Center, 2010) are described below.

Usually pIC50 stands for the IC50 on a negative log10 scale, so that one unit is a factor of ten.

pIC50: −log10 of the molar value. “And” between values parts separate entries of the source, which are not always exact repeats. Equal values may be shown once.

Chain of Short transient receptor potential channel 6 (Mus musculus) (Q61143 whole entry, looked up): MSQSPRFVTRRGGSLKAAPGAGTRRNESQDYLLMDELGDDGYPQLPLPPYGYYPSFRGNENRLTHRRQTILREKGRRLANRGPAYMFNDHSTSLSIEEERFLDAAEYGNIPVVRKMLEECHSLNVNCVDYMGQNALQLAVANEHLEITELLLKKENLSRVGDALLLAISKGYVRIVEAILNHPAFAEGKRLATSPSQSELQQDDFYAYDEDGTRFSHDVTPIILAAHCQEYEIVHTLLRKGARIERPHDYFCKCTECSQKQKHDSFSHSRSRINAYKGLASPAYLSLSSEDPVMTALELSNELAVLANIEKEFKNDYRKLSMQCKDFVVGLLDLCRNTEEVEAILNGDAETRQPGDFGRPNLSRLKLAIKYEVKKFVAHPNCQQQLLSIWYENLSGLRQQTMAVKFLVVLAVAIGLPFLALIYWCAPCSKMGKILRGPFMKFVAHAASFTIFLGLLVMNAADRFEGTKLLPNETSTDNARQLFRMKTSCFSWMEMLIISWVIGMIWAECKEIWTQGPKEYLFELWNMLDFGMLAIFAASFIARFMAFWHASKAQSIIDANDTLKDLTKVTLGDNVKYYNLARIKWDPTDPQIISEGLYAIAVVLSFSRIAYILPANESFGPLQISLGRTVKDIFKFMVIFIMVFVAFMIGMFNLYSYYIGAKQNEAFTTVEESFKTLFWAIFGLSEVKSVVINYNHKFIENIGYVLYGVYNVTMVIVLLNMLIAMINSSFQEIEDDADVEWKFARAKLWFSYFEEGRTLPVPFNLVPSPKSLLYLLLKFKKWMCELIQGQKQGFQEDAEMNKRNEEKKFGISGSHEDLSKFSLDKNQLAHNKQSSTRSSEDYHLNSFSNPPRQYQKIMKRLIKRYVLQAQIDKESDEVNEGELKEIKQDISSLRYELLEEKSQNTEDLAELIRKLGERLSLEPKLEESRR

This assay concerns the target Short transient receptor potential channel 6 (Mus musculus) (UniProt Q61143). Description: TRPC6 inhibitor potency, dose response, cell-based, mouse TRPC6, HEK293, membrane potential (AID 2696). Conditions: TRPC6-expressing HEK293 cells, membrane potential dye fluorescence, acetylcholine-stimulated.
Regarding `CCOC(=O)N1CCN(Cc2nc(-c3ccc(Cl)cc3)no2)CC1`, the negative logarithm of the IC50 (pIC50) is 4.10.

In the case of `COc1cccc(Nc2nc(NCCO)c3ccccc3n2)c1`, the negative logarithm of the IC50 (pIC50) was 4.20.

For `CC[N+]1(C)CCC(=C2c3ccccc3CC(=O)c3sccc32)CC1` (stereo not drawn), the negative logarithm of the IC50 (pIC50) was 4.90.

Regarding `CCN(CC)CCSc1nnc(Nc2ccccc2)n1-c1ccccc1`, the negative-log IC50 (pIC50) was 4.35.

Take `S=c1[nH]nc(Cc2ccccc2)n1Cc1ccco1`: the pIC50 is 4.40.

As to `COc1ccc(-c2cc(=Nc3ccc(C)cc3)c3ccccc3o2)cc1`, the pIC50 is 4.35.

Consider `C#CC[N+]1(C)[C@@H]2CC[C@H]1CC(OC(=O)C(CO)c1ccccc1)C2` (stereo partly drawn), for which the negative logarithm of the IC50 (pIC50) is 6.55.

In the case of `CC(C)[N+](C)(CCOC(=O)C1c2ccccc2Oc2ccccc21)C(C)C`, the pIC50 was 7.15.

As for `COc1ccc2ccccc2c1CNC(C)CCc1ccccc1` (stereo not drawn), the negative logarithm of the IC50 (pIC50) was 4.80.

In the case of `CN1CCC(OC(=O)C2c3ccccc3Oc3ccccc32)CC1`, the pIC50 is 6.15.

Turning to `O=C(NC(Nc1ncc(S(=O)(=O)c2ccc([N+](=O)[O-])cc2)s1)(C(F)(F)F)C(F)(F)F)c1ccc(Cl)cc1`, the pIC50 was 4.35.

Consider `CCn1c2c(c(=N)c3ccccc31)CCC2`, for which the negative-log IC50 (pIC50) was 4.30.

For the compound `CCCCn1c(-c2ccc([N+](=O)[O-])cc2)n[nH]c1=S`, the pIC50 is 5.20.

With `CSCc1cc(N(C)c2ccccc2)nc(-c2ccccn2)n1`, the negative-log IC50 (pIC50) was 4.55.

As to `Fc1ccc2[nH]c3c(c2c1)CN(C(=S)NCc1ccccc1)CC3`, the pIC50 was 4.50.

As to `CCCC(CCC)C(=O)OC[N+](C)(C)CCOC(=O)C(O)(c1ccccc1)C1CCCC1` (stereo not drawn), the negative logarithm of the IC50 (pIC50) was 5.75.

Take `Cc1ccc(C)c(NC(=O)C(NCC(C)(C)N2CCOCC2)c2ccccc2)c1` (stereo not drawn): the negative-log IC50 (pIC50) is 4.60.

For `C[N+]1(C)CCCC(OC(=O)C(O)(c2ccccc2)c2ccccc2)C1` (stereo not drawn), the negative logarithm of the IC50 (pIC50) is 6.05.

In the case of `CN1CCCC(C#CC(O)(c2ccccc2)c2ccccc2)C1` (stereo not drawn), the pIC50 was 4.80.

Consider `CCN(CC)CCCNc1nc2ccccc2c2nc(-c3ccncc3)nn12`, for which the negative-log IC50 (pIC50) was 4.35.

Consider `CC1(C)CC(N=c2cc(-c3ccccc3)oc3ccc(Cl)cc23)CC(C)(C)N1`, for which the pIC50 is 4.30.

Consider `CCN(CC)CCSc1nnc2c3ccccc3n(Cc3ccccc3)c2n1`, for which the negative-log IC50 (pIC50) is 4.35.

As to `COc1ccc(CCC(C)NC2C3CC4CC(C3)CC2C4)cc1` (stereo not drawn), the pIC50 is 4.35.

For the compound `CCN(CC)CCn1c(=N)n(CCOc2ccccc2)c2ccccc21`, the pIC50 was 4.45.

As to `CCN(CC)CCCOC(=O)C1(c2ccccc2)CCCC1`, the pIC50 was 4.95.

In the case of `O=C(CNCCC1=CCCCC1)Nc1ccc(N2CCCCCC2)cc1`, the pIC50 is 4.15.

Consider `CN1CCN(CCC(C#N)(c2ccccc2)c2ccccc2)CC1`, for which the negative logarithm of the IC50 (pIC50) is 4.40.

With `Cc1ccc(S(=O)(=O)n2c(N)nc3ccccc32)cc1`, the negative-log IC50 (pIC50) was 4.75.

On to `COc1ccc(Cl)cc1Nc1nc(N)c2ccccc2n1`, for which the negative logarithm of the IC50 (pIC50) is 4.50.

For `Cc1ccc(C)c(Nc2nc(N)c3ccccc3n2)c1`, the negative logarithm of the IC50 (pIC50) was 4.70.

On to `Cc1nc2c(o1)CCc1ccccc1C2N1CCN(C)CC1` (stereo not drawn), for which the negative-log IC50 (pIC50) is 6.10 and 5.50.

Turning to `Cc1cccc(OCc2nnc(SCc3cc(=O)n4cc(Br)ccc4n3)o2)c1`, the negative logarithm of the IC50 (pIC50) was 4.15.

As to `C[N+]12CCC(CC1)C(OC(=O)C(O)(c1ccccc1)c1ccccc1)C2` (stereo not drawn), the pIC50 is 7.40.

As to `CC[N+](C)(CC)CCOC(=O)C(O)(c1ccccc1)C1CCCCC1` (stereo not drawn), the pIC50 is 6.10.

For the compound `Cc1ccc(C2N(c3ccccc3)C(=S)N3CCCN23)cc1` (stereo not drawn), the pIC50 is 4.60.

Turning to `C[N+](C)(C)CCOC(=O)C1(c2ccccc2)CCCC1`, the pIC50 was 5.05.

Regarding `Cc1c(CCOC(=O)C23CC4CC(CC(C4)C2)C3)sc[n+]1Cc1ccccc1`, the pIC50 is 4.40.

For `CCN(CC)CCn1c(NC(=O)c2ccccc2O)nc2ccccc21`, the pIC50 is 4.50.

Take `CC1CCN(CC(C)CNC(=O)c2cc(-c3ccccn3)nc3ccccc23)CC1` (stereo not drawn): the pIC50 was 4.35.

For `O=C1Nc2ccccc2/C1=N\N=C\C1=C(N2CCOCC2)C(=C\c2ccccc2)/CC1`, the negative-log IC50 (pIC50) was 4.40.

`CCCn1c(=N)c(C(=O)NC2CCCC2)cc2c(=O)n3cccc(C)c3nc21`: the pIC50 was 4.35.

Regarding `CCOc1ccc(NC(=O)c2c(NC(=O)CN3CCN(C)CC3)sc3c2CCC3)cc1`, the negative-log IC50 (pIC50) is 4.35.

As for `Cc1cc(N=Nc2ccccc2)c(NCC(O)C(O)C(O)CO)cc1C` (stereo not drawn), the pIC50 was 4.30.

On to `Cc1ccccc1CCNCc1cc2cccc(C)c2[nH]c1=O`, for which the negative-log IC50 (pIC50) is 4.30.

As for `CC(C)C(O)(C#CCN1CCCCCC1)c1ccccc1` (stereo not drawn), the pIC50 was 4.35.

In the case of `CCOC(=O)c1cnc2c(C)cccc2c1NCCCN1CCOCC1`, the pIC50 was 4.35.

As to `O=C1c2ccccc2-c2onc3c(N4CCN(CCO)CC4)cc(N4CCN(C(=O)c5ccco5)CC4)c1c23`, the negative logarithm of the IC50 (pIC50) was 4.10.

Regarding `CC(=O)OCC[N+](C)(C)C`, the negative logarithm of the IC50 (pIC50) is 5.80.

Consider `NCCCC(=O)N1c2ccccc2Sc2ccccc21`, for which the pIC50 was 4.35.

For the compound `C[N+]1(C)C2CCC1CC(OC(=O)C(CO)c1ccccc1)C2` (stereo not drawn), the pIC50 was 7.15.

With `Oc1ccc(CN2CCc3ccccc3C2)c2cccnc12`, the pIC50 is 4.80.

In the case of `CN(C)C(C)(C)/C=C/C(O)(c1ccccc1)c1ccccc1`, the negative logarithm of the IC50 (pIC50) is 4.75.

For the compound `CC(C)(C)c1ccc(Cn2c(=N)n(CC(O)c3ccco3)c3ccccc32)cc1` (stereo not drawn), the negative-log IC50 (pIC50) was 4.35.

Take `O=[N+]([O-])c1ccc(N=Nc2c(Cl)cc(O)cc2Cl)cc1`: the pIC50 is 4.60.

With `Cn1c(NCc2c[nH]c3ccccc23)nc2ccccc21`, the pIC50 was 4.30.

With `COC(=O)c1[nH]c2ccccc2c1NC(=O)CN1CCN(C/C=C/c2ccccc2)CC1`, the negative-log IC50 (pIC50) was 4.30.

As for `O=C(Nc1ccccc1)Nc1ncc([N+](=O)[O-])s1`, the pIC50 is 4.45.

As for `CC[N+](C)(C)CC/C=C1/c2ccccc2Sc2ccc(Cl)cc21`, the negative-log IC50 (pIC50) is 5.80.

Consider `N#Cc1c(N2CCNCC2)nc(-c2ccco2)c2c1CCCC2`, for which the pIC50 was 4.35.

On to `CCOC(=O)C1CCCN(C(=O)c2cc3c(C)nc4ccccc4c3o2)C1` (stereo not drawn), for which the pIC50 was 4.30.

Take `Cc1ccc(N2C(=O)CSC2c2c(F)cccc2Cl)cc1` (stereo not drawn): the negative logarithm of the IC50 (pIC50) was 4.75.

On to `CCCC[n+]1ccc(-c2nc3ccc([N+](=O)[O-])cc3[nH]2)cc1`, for which the pIC50 is 4.25.

For `Cc1cccc(CCNCc2cc3cccc(C)c3[nH]c2=O)c1`, the pIC50 was 4.30.

For `Cc1cc(C)n(-c2nc(SCCN(C)C)c3c4c(sc3n2)COC(C)(C)C4)n1`, the pIC50 is 4.10.

Take `Cc1cc(-n2cccn2)ccc1CN1CCN(CC(C)C)C(CCO)C1` (stereo not drawn): the pIC50 is 4.95.

In the case of `Cc1cccc[n+]1CC(=O)N1c2ccccc2Sc2ccccc21`, the negative-log IC50 (pIC50) was 5.35.

`Cc1ccc(CNc2ccc3c(c2)ncn3C(C)(C)C)cc1`: the negative-log IC50 (pIC50) was 4.35.

As to `COC(=O)C(NC(=O)c1ccc(C)cc1)(Nc1cccc(C)n1)C(F)(F)F` (stereo not drawn), the pIC50 was 4.30.

Take `COc1cc(/C=N/Nc2nc(N3CCCC3)nc(N3CCCC3)n2)ccc1OCc1ccccc1F`: the pIC50 is 4.40.

For the compound `CN1C2CCC1CC(OC(c1ccccc1)c1ccccc1)C2` (stereo not drawn), the pIC50 is 6.49.

For the compound `COC(=O)c1ccc(CN2CCN(C3CCCC3)C(CCO)C2)cc1` (stereo not drawn), the pIC50 is 4.45.

Consider `COc1ccccc1N1CCN(Cc2ccc(O)c3ncccc23)CC1`, for which the negative-log IC50 (pIC50) is 4.40.

As to `CCN(CC)CCC/C(=N\O)C(O)(c1ccccc1)c1ccccc1`, the pIC50 was 5.10.

As for `Cn1c(=O)[nH]c(=O)c2c1nc(N1CCCCCC1)n2CCN1CCCCCC1`, the negative-log IC50 (pIC50) was 4.40.

In the case of `Cc1c(C(=O)OC(C)CCN(C)C)oc2ccccc12` (stereo not drawn), the negative-log IC50 (pIC50) was 4.85.

For the compound `COc1ccccc1OCCNCC(O)COc1cccc2[nH]c3ccccc3c12` (stereo not drawn), the pIC50 is 4.35.

With `Cc1c(C(=O)OCCN2CCCCC2)oc2ccccc12`, the negative-log IC50 (pIC50) was 4.60.

`CN1CCCC1CCNc1ccc2c(=O)c3ccccc3oc2c1` (stereo not drawn): the negative logarithm of the IC50 (pIC50) is 4.20.

For the compound `CCCCCOC(=O)c1ccc(NC(=O)c2ccco2)cc1`, the pIC50 was 4.15.

Turning to `O=C(NNS(=O)(=O)c1ccc2ccccc2c1)C1CCN(Cc2ccccc2)CC1`, the pIC50 is 5.85.

Regarding `Nc1c2c(nc3ccccc13)N(C1CCCCC1)CC2`, the negative logarithm of the IC50 (pIC50) was 4.15.

In the case of `CN(C)CCOC(=O)C1(c2ccccc2)CCCC1`, the pIC50 was 4.35.

Regarding `Cc1ccc(Oc2ccc(NC(=O)Cn3ccsc3=N)cc2)cc1`, the pIC50 is 4.15.

On to `Cc1cccc(-c2nc(NCCCN(C)C)c3ccccc3n2)c1`, for which the negative logarithm of the IC50 (pIC50) was 4.15.

Regarding `CC(C)N1CCC2(CC1)N=C(c1ccc3c(c1)OCO3)CC(c1cc(Cl)ccc1O)N2` (stereo not drawn), the negative-log IC50 (pIC50) was 4.15.

In the case of `Clc1ccc2c(N3CCCC3)ccnc2c1`, the negative-log IC50 (pIC50) was 4.25.

In the case of `CCc1ccc(N=C2N=C(N)c3ccccc32)cc1`, the pIC50 is 4.30.

For `Cc1nnc(-c2ccccc2)c(=O)n1/N=C/c1c(O)ccc2ccccc12`, the pIC50 was 4.10.

`CCOC(=O)c1[nH]c2ccc(F)cc2c1NC(=O)CN1CCN(C/C=C/c2ccccc2)CC1`: the pIC50 was 4.50.

`CCCc1ncc(C(O)(c2ccccc2)c2ccccc2)n1C`: the pIC50 was 4.40.

`O=C(OCCN1CCCCC1)C1(c2ccccc2)CCCC1`: the negative logarithm of the IC50 (pIC50) was 5.05.

As for `Cc1ccccc1Nc1nc(N)c2ccccc2n1`, the negative logarithm of the IC50 (pIC50) was 4.35.

For the compound `Cc1cc(-n2cccn2)ccc1CN1CCN(C2CCCC2)C(CCO)C1` (stereo not drawn), the pIC50 was 6.30.

In the case of `CCOCCCNC(=S)N1CCCN(c2nc3cc(C)ccc3cc2C#N)CC1`, the negative logarithm of the IC50 (pIC50) was 4.35.

For `N=c1c(C(=O)NCCN2CCOCC2)cc2c(=O)n3ccccc3nc2n1CCc1ccccc1`, the pIC50 was 4.30.

Regarding `C[N+]1(C)[C@@H]2CC(OC(=O)[C@H](CO)c3ccccc3)C[C@H]1[C@@H]1O[C@@H]12` (stereo partly drawn), the pIC50 was 7.52.

For `Nc1cccc2nc3ccccc3cc12`, the pIC50 is 4.30.

As for `O=C(c1ccc(C(F)(F)F)cc1)C1CCCN(C2CCSCC2)C1` (stereo not drawn), the pIC50 is 4.40.

Turning to `CCOC(=O)c1cn(C2CC2)c2c(F)c(NCCCN(C)C)c(F)cc2c1=O`, the negative logarithm of the IC50 (pIC50) was 4.15.

As for `CN(C)CCCOC(=O)C1c2ccccc2Oc2ccccc21`, the pIC50 was 5.20.

As to `CC[N+](CC)(CC)CCCOC(=O)C(O)(c1ccccc1)C1CCCCC1` (stereo not drawn), the negative-log IC50 (pIC50) is 7.22.

Consider `CCC(C)N(CCNC(=O)CC1Oc2ccccc2NC1=O)C1CCCCC1` (stereo not drawn), for which the pIC50 is 4.55.

Take `CCOC(=O)c1nc2cc3n(c(C)c-2c1C)C(C)C(C)=C3C` (stereo not drawn): the negative-log IC50 (pIC50) was 4.35.
